Key:
SARS-CoV-2 nsp14 [1] = target: T1, SARS-CoV-2 nsp14 (Severe acute respiratory syndrome coronavirus 2, UniProt P0DTD1); assay: Nsp14 RapidFire MS high-throughput screening assay; format: biochemical
nsp14 N7-MTase = conditions: read-out: IC50 nsp14 N7-MTase activity; cited from earlier work
SAR-CoV = conditions: cited from earlier work
[2] = hydrolysis to the active metabolite tizoxanide; cited from earlier work
[3] = humans; with minimal gastrointestinal side effects; cited from earlier work
SARS-CoV-2 = conditions: read-out: EC50 blocking SARS-CoV-2 in vitro infections; cited from earlier work
[4] = target: human homolog RNA RNMT (RNMT:RAM) (Homo sapiens, UniProt O43148); assay: RNMT assay under similar conditions to the nsp14 RapidFire assay; format: biochemical
SARS-CoV-2 nsp14 [5] = target: T1, SARS-CoV-2 nsp14; assay: biochemical; format: biochemical

Chain of human homolog RNA RNMT (RNMT:RAM) (O43148 whole entry): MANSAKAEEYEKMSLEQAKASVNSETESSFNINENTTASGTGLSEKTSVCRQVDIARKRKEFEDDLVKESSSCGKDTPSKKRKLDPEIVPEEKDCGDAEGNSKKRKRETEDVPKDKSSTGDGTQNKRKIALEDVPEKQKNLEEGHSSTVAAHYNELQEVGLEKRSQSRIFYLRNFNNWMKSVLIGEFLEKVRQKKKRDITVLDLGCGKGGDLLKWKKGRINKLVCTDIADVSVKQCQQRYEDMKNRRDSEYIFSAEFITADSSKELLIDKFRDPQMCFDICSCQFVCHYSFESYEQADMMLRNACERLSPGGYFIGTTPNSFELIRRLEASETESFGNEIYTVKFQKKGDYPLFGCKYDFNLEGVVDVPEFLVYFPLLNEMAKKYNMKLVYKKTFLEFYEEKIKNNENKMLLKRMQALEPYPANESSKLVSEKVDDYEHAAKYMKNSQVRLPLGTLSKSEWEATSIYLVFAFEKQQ
Chain of human homolog RNA RNMT (RNMT:RAM) (Q9BTL3 1-90 partner limits assumed): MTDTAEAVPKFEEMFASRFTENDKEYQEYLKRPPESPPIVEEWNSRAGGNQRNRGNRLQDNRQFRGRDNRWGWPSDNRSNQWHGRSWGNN

O=C1C=CC(=O)N1c1cccc(F)c1 [N-(3-fluorophenyl)maleimide]
percentage effect on nsp14 activity (SARS-CoV-2 nsp14 [1]; single concentration of 10 µM): greater than 50%

Nc1ncnc2c1ncn2[C@@H]1O[C@H](CSCC[C@H](N)C(=O)O)[C@@H](O)[C@H]1O [S-adenosyl-L-homocysteine]
IC50 (nsp14 N7-MTase): 16 µM

O=C(O)C1=CC(=C(c2ccc(O)c(C(=O)O)c2)c2ccc(O)c(C(=O)O)c2)C=CC1=O [aurintricarboxylic acid]
IC50 (nsp14 N7-MTase): 6.4 µM
effect on SAR-CoV replication in infected cells (SAR-CoV): limit SAR-CoV replication in infected cells

O=c1c(O)c(-c2ccc(O)cc2)oc2cc(O)cc(O)c12 [kaempferol]
IC50 (SARS-CoV-2 nsp14 [1]): 28 µM

CC(=O)Oc1ccccc1C(=O)Nc1ncc([N+](=O)[O-])s1 [nitazoxanide]
metabolic fate following oral administration [2]: rapidly hydrolyzed
Emax at 100 µM (SARS-CoV-2 nsp14 [1]; read-out: maximal effect, dose response, top concentration 100 µM): 89.7%
tolerated single dose [3]: up to 4 g
EC50 (SARS-CoV-2): 2.12 µM
IC50 [4]: > 100 µM
IC50 (SARS-CoV-2 nsp14 [5]): 132 µM
inhibition of N7-guanosine cap methylation (SARS-CoV-2 nsp14 [5]): Forty-nine
shift in activity between cap MTase assay and primary biochemical assay (SARS-CoV-2 nsp14 [5]; orthogonal versus RapidFire assay): 10 fold

O=C(Nc1ncc([N+](=O)[O-])s1)c1ccccc1O [tizoxanide]
IC50 (SARS-CoV-2 nsp14 [1]): 54.8 µM

— publication PMC7967019 (Slas Discovery, 2022)
